From ChEMBL document CHEMBL5385942, “C3-Symmetric ligands in drug design: An overview of the challenges and opportunities ahead” (Bioorg Med Chem Lett, 2024)
pEC50: −log10 of the molar value. Calls of active or inactive are those of the source. The calls are words filed in the database; no cut-off is given here.

What was measured:
Human alphaherpesvirus 1 = assay: Antiviral activity against HSV-1 infected in African green monkey Vero cells by plaque reduction assay; format: functional, organism-based; settings: Human alphaherpesvirus 1, Vero
dsDNA = assay: Stabilization of human duplex DNA assessed as change in temperature at 1 uM by FRET assay; format: nucleic-acid assay
Quadruplex DNA [1] = assay: Stabilization of human G4 quadruplex telomeric22 DNA assessed as change in temperature at 1 uM by FRET assay; format: nucleic-acid assay
Quadruplex DNA [2] = assay: Stabilization of human G4 quadruplex telomeric22 DNA assessed as change in temperature at 2 uM by FRET assay; format: nucleic-acid assay
Quadruplex DNA [3] = assay: Stabilization of human G4 quadruplex telomeric22 DNA assessed as change in temperature at 5 uM by FRET assay; format: nucleic-acid assay
Quadruplex DNA [4] = assay: Stabilization of human G4 quadruplex telomeric22 DNA assessed as change in temperature at 10 uM by FRET assay; format: nucleic-acid assay
Micrococcus luteus = assay: Antimicrobial activity against Micrococcus luteus ATCC 9341 assessed as zone of inhibition by […]; format: functional
Bacillus subtilis = assay: Antimicrobial activity against Bacillus subtilis MTCC 441 assessed as zone of inhibition by […]; format: functional

Row | pEC50 (Human alphaherpesvirus 1) | ΔTm (dsDNA) [°C] | ΔTm (Quadruplex DNA [1]) [°C] | ΔTm (Quadruplex DNA [2]) [°C] | SMILES | also measured
1 | 4.55 |  |  |  | COc1ccc(CNc2nc(NCc3ccc(OC)c(OC)c3OC)nc(NCc3ccc(OC)c(OC)c3OC)n2)c(OC)c1OC | 
2 | < 4.00 |  |  |  | CC(C)COc1nc(N)nc(OCC(C)C)n1 | 
3 | 4.41 |  |  |  | Cc1ccc(CNc2nc(NCc3ccc(C)cc3)nc(NCc3ccc(C)cc3)n2)cc1 | 
4 | 6.01 |  |  |  | COc1ccc(CNc2nc(NCc3ccc(OC)c(OC)c3)nc(NCc3ccc(OC)c(OC)c3)n2)cc1OC | 
5 |  | 0 | 1 | 2 | CCNCCCC(=O)Nc1ccc(-c2cn(Cc3cc(Cn4cc(-c5ccc(NC(=O)CCCNCC)cc5)nn4)cc(Cn4cc(-c5ccc(NC(=O)CCCNCC)cc5)nn4)c3)nn2)cc1 | 
6 |  |  |  |  | c1ccc2c(c1)c1cc(-c3cc(-c4ccc5c(c4)c4ccccc4n5CCN4CCCCC4)cc(-c4ccc5c(c4)c4ccccc4n5CCN4CCCCC4)c3)ccc1n2CCN1CCCCC1 | Activity (Quadruplex DNA [1]): inactive; ΔTm (Quadruplex DNA [3]): 2.3 °C; ΔTm (Quadruplex DNA [4]): 4.9 °C
7 |  |  |  |  | O=C(/C=C/c1cccc([N+](=O)[O-])c1)c1ccc(Oc2nc(Oc3ccc(C(=O)/C=C/c4cccc([N+](=O)[O-])c4)cc3)nc(Oc3ccc(C(=O)/C=C/c4cccc([N+](=O)[O-])c4)cc3)n2)cc1 | inhibition zone (IZ) (Micrococcus luteus): 5 mm; inhibition zone (IZ) (Bacillus subtilis): 7 mm
8 |  |  | 2.8 |  | CCN(CC)CCn1c2ccccc2c2cc(-c3cc(-c4ccc5c(c4)c4ccccc4n5CCN(CC)CC)cc(-c4ccc5c(c4)c4ccccc4n5CCN(CC)CC)c3)ccc21 | ΔTm (Quadruplex DNA [3]): 4.9 °C; ΔTm (Quadruplex DNA [4]): 3.3 °C
9 |  | 0 | 2 | 2 | CCCCCCNCC(=O)Nc1ccc(-c2cn(Cc3cc(Cn4cc(-c5ccc(NC(=O)CNCCCCCC)cc5)nn4)cc(Cn4cc(-c5ccc(NC(=O)CNCCCCCC)cc5)nn4)c3)nn2)cc1 | 
10 |  | 0 |  |  | CCNCCC(=O)Nc1ccc(-c2cn(Cc3cc(Cn4cc(-c5ccc(NC(=O)CCNCC)cc5)nn4)cc(Cn4cc(-c5ccc(NC(=O)CCNCC)cc5)nn4)c3)nn2)cc1 | 
11 |  |  | 2.6 |  | c1ccc2c(c1)c1cc(-c3cc(-c4ccc5c(c4)c4ccccc4n5CCCN4CCCC4)cc(-c4ccc5c(c4)c4ccccc4n5CCCN4CCCC4)c3)ccc1n2CCCN1CCCC1 | ΔTm (Quadruplex DNA [3]): 14.3 °C; ΔTm (Quadruplex DNA [4]): 17.5 °C
12 | 4.53 |  |  |  | CC(C)CNc1nc(NCC(C)C)nc(NCC(C)C)n1 | 
13 | 4.88 |  |  |  | c1ccc(CNc2nc(NCc3ccccc3)nc(NCc3ccccc3)n2)cc1 | 
14 |  | 0 | 0 | 0 | CCCOCCNCCC(=O)Nc1ccc(-c2cn(Cc3cc(Cn4cc(-c5ccc(NC(=O)CCNCCOCCC)cc5)nn4)cc(Cn4cc(-c5ccc(NC(=O)CCNCCOCCC)cc5)nn4)c3)nn2)cc1 | 
15 | 4.56 |  |  |  | CC(C)Nc1nc(NC(C)C)nc(NC(C)C)n1 | 
16 |  | 0 | 2 | 5 | CCCCCNCCCC(=O)Nc1ccc(-c2cn(Cc3cc(Cn4cc(-c5ccc(NC(=O)CCCNCCCCC)cc5)nn4)cc(Cn4cc(-c5ccc(NC(=O)CCCNCCCCC)cc5)nn4)c3)nn2)cc1 | 
17 | < 4.00 |  |  |  | COc1ccc(CNc2nc(NCc3ccc(OC)cc3)nc(NCc3ccc(OC)cc3)n2)cc1 | 
18 |  |  |  |  | c1ccc2c(c1)c1cc(-c3cc(-c4ccc5c(c4)c4ccccc4n5CCCN4CCOCC4)cc(-c4ccc5c(c4)c4ccccc4n5CCCN4CCOCC4)c3)ccc1n2CCCN1CCOCC1 | Activity (Quadruplex DNA [1]): inactive; Activity (Quadruplex DNA [3]): inactive; Activity (Quadruplex DNA [4]): inactive
19 |  | 0 | 0 | 1 | CCNCC(=O)Nc1ccc(-c2cn(Cc3cc(Cn4cc(-c5ccc(NC(=O)CNCC)cc5)nn4)cc(Cn4cc(-c5ccc(NC(=O)CNCC)cc5)nn4)c3)nn2)cc1 | 
20 |  |  | 1.1 |  | c1ccc2c(c1)[nH]c1ccc(-c3cc(-c4ccc5[nH]c6ccccc6c5c4)cc(-c4ccc5[nH]c6ccccc6c5c4)c3)cc12 | ΔTm (Quadruplex DNA [3]): 4 °C; ΔTm (Quadruplex DNA [4]): 2.6 °C

Row | pEC50 (Human alphaherpesvirus 1) | ΔTm (dsDNA) [°C] | ΔTm (Quadruplex DNA [1]) [°C] | ΔTm (Quadruplex DNA [2]) [°C] | SMILES | also measured
21 |  | 0 | 1 | 1 | CCCCCCNCCCC(=O)Nc1ccc(-c2cn(Cc3cc(Cn4cc(-c5ccc(NC(=O)CCCNCCCCCC)cc5)nn4)cc(Cn4cc(-c5ccc(NC(=O)CCCNCCCCCC)cc5)nn4)c3)nn2)cc1 | 
22 |  |  | 6 |  | c1ccc2c(c1)c1cc(-c3cc(-c4ccc5c(c4)c4ccccc4n5CCCN4CCCCC4)cc(-c4ccc5c(c4)c4ccccc4n5CCCN4CCCCC4)c3)ccc1n2CCCN1CCCCC1 | ΔTm (Quadruplex DNA [3]): 17 °C; ΔTm (Quadruplex DNA [4]): 19.9 °C
23 | 4.96 |  |  |  | Clc1ccc(CNc2nc(NCc3ccc(Cl)cc3)nc(NCc3ccc(Cl)cc3)n2)cc1 | 
24 |  | 0 | 0 | 0 | CCCCCNCC(=O)Nc1ccc(-c2cn(Cc3cc(Cn4cc(-c5ccc(NC(=O)CNCCCCC)cc5)nn4)cc(Cn4cc(-c5ccc(NC(=O)CNCCCCC)cc5)nn4)c3)nn2)cc1 | 
25 |  | 0 | 0 | 0 | CCCOCCNCC(=O)Nc1ccc(-c2cn(Cc3cc(Cn4cc(-c5ccc(NC(=O)CNCCOCCC)cc5)nn4)cc(Cn4cc(-c5ccc(NC(=O)CNCCOCCC)cc5)nn4)c3)nn2)cc1 | 
26 | < 4.00 |  |  |  | COc1ccc(CNc2nc(NCc3ccc(OC)cc3OC)nc(NCc3ccc(OC)cc3OC)n2)c(OC)c1 | 
27 | 5.13 |  |  |  | FC(F)(F)c1ccc(CNc2nc(NCc3ccc(C(F)(F)F)cc3)nc(NCc3ccc(C(F)(F)F)cc3)n2)cc1 | 
28 | 5.27 |  |  |  | c1cc2c(cc1CNc1nc(NCc3ccc4c(c3)OCO4)nc(NCc3ccc4c(c3)OCO4)n1)OCO2 | 
29 | < 4.00 |  |  |  | CC(C)(C)Oc1nc(N)nc(OC(C)(C)C)n1 | 
30 |  | 0 |  |  | CNCCC(=O)Nc1ccc(-c2cn(Cc3cc(Cn4cc(-c5ccc(NC(=O)CCNC)cc5)nn4)cc(Cn4cc(-c5ccc(NC(=O)CCNC)cc5)nn4)c3)nn2)cc1 | 
31 | < 4.00 |  |  |  | Nc1nc(OC(C(F)(F)F)C(F)(F)F)nc(OC(C(F)(F)F)C(F)(F)F)n1 | 
32 |  | 0 | 2 | 7 | CNCCCC(=O)Nc1ccc(-c2cn(Cc3cc(Cn4cc(-c5ccc(NC(=O)CCCNC)cc5)nn4)cc(Cn4cc(-c5ccc(NC(=O)CCCNC)cc5)nn4)c3)nn2)cc1 | 
33 |  |  |  |  | NC(=S)N1N=C(c2ccc(Oc3nc(Oc4ccc(C5=NN(C(N)=S)C(c6ccc([N+](=O)[O-])cc6)C5)cc4)nc(Oc4ccc(C5=NN(C(N)=S)C(c6ccc([N+](=O)[O-])cc6)C5)cc4)n3)cc2)CC1c1ccc([N+](=O)[O-])cc1 (centres undefined) | inhibition zone (IZ) (Bacillus subtilis): 10 mm
34 |  | 0 | 4 | 11 | CCCCCCNCCC(=O)Nc1ccc(-c2cn(Cc3cc(Cn4cc(-c5ccc(NC(=O)CCNCCCCCC)cc5)nn4)cc(Cn4cc(-c5ccc(NC(=O)CCNCCCCCC)cc5)nn4)c3)nn2)cc1 | 
35 |  | 0 | 1 | 1 | CNCC(=O)Nc1ccc(-c2cn(Cc3cc(Cn4cc(-c5ccc(NC(=O)CNC)cc5)nn4)cc(Cn4cc(-c5ccc(NC(=O)CNC)cc5)nn4)c3)nn2)cc1 | 
36 |  | 0 | 1 | 7 | CCCCCNCCC(=O)Nc1ccc(-c2cn(Cc3cc(Cn4cc(-c5ccc(NC(=O)CCNCCCCC)cc5)nn4)cc(Cn4cc(-c5ccc(NC(=O)CCNCCCCC)cc5)nn4)c3)nn2)cc1 | 
37 |  |  |  |  | O=C(/C=C/c1ccc(Cl)cc1)c1ccc(Oc2nc(Oc3ccc(C(=O)/C=C/c4ccc(Cl)cc4)cc3)nc(Oc3ccc(C(=O)/C=C/c4ccc(Cl)cc4)cc3)n2)cc1 | inhibition zone (IZ) (Micrococcus luteus): 8 mm; inhibition zone (IZ) (Bacillus subtilis): 7 mm
38 | 4.61 |  |  |  | FC(F)CNc1nc(NCC(F)F)nc(NCC(F)F)n1 | 
39 |  | 0 | 0 | 0 | CCCOCCNCCCC(=O)Nc1ccc(-c2cn(Cc3cc(Cn4cc(-c5ccc(NC(=O)CCCNCCOCCC)cc5)nn4)cc(Cn4cc(-c5ccc(NC(=O)CCCNCCOCCC)cc5)nn4)c3)nn2)cc1 | 
